Source: patent US4268510A, “1,3-Benzoxazine trichloromethyl derivatives, compositions and use” (Imperial Chemical Industries Limited, priority 1978, dated 1981)
≈ marks a conversion by molar mass, not a printed value.

The compounds below were run on methane production from ruminal fluid (assay: in vitro assay of inhibition of methane production from ruminal fluid). Settings: at 1 μg./ml.; in vitro rumen fluid, 39° C., 15-16 hours.
Format: cell-based, steers (pooled rumen fluid)
Description: Rumen fluid is collected on a regular routine basis from two steers, which are fed on the same hay-plus-concentrate diet. Sampling time is standardised as far as possible, and the fluid from the two animals is pooled on a 50/50 basis. Large particulate matter is removed by filtering the pooled fluid through four layers of muslin cloth. The filtrate is then diluted in the ratio of one volume of filtrate to three volumes of an artificial rumen fluid (prepared as described by G. L. Bales et al., Journal of Dairy Science, 1976, volume 59, page 1850, but omitting acetic acid), and the pH of the mixture is adjusted to 6.9-7.0 with saturated aqueous sodium carbonate solution. Aliquots (50 ml.) of this mixture are dispensed into 100 ml. conical flasks containing dried ground hay (0.5 g.), and each flask is used to test a test compound at a particular concentration.
The test compound is added to the conical flask as a solution in ethanol, the flask is flushed with carbon dioxide gas, stoppered with a suba-seal, and incubated at 39° C. for 15-16 hours. After one hour, a narrow bore needle is inserted through the suba-seal to relieve the gas pressure, and the needle is withdrawn 30 minutes before the incubation is ended. Fermentation is then stopped by placing the flask in ice, and after 15 minutes cooling, the gas over the liquid is analysed for methane by gas chromatography, and the concentration of the test compound required to produce a 50% reduction in methane production (ED50 in μg./ml.) is calculated.
The test of methane inhibition described in Example 12 was repeated for various other compounds, to give the results shown below. The results are expressed as the percentage inhibition of methane production caused by 1 μg./ml. of a test compound, except for those compounds indicated by *, for which 3 μg./ml. was used.
Work on `Cc1ccc(S(=O)(=O)Nc2ccc3c(c2)C(=O)NC(C(Cl)(Cl)Cl)O3)cc1` (centres unmarked) [3,4-dihydro-6-tosylamino-2-trichloromethyl-2H-benzo[e]-[1,3]-oxazin-4-one] yielded an inhibition at 1 µg/mL of 94%.
`O=C(O)c1cc(C(=O)O)c2c(c1)C(=O)NC(C(Cl)(Cl)Cl)O2` (centres unmarked) [drawing 8; R1=COOH; R3=COOH; R5=H, 3,4-dihydro-4-oxo-2-trichloromethyl-2H-benzo[e]-[1,3]-oxazine-6,8-dicarboxylic acid] was tested, and the inhibition at 1 µg/mL was 38%.
`CC(=O)Nc1ccc2c(c1)C(=O)NC(C(Cl)(Cl)Cl)O2` (centres unmarked) [drawing 8; R1=H; R3=CH3 CONH; R5=H, 6-acetamido-3,4-dihydro-2-trichloromethyl-2H-benzo[e]-[1,3]-oxazin-4-one] gave an inhibition at 1 µg/mL of 96%.
Compound `O=Cc1ccc2c(c1)C(=O)NC(C(Cl)(Cl)Cl)O2` (centres unmarked) [drawing 8; R1=H; R3=CHO; R5=H] has an inhibition at 1 µg/mL of 47%.
With `CN1C(=O)c2ccccc2OC1C(Cl)(Cl)Cl` (centres unmarked) [drawing 8; R1=H; R3=H; R5=CH3, 3,4-dihydro-3-methyl-2-trichloromethylbenzo[e]-[1,3]-oxazin-4-one] the inhibition at 1 µg/mL was 100%.

Same assay, conditions: at 3 μg./ml.; in vitro rumen fluid, 39° C., 15-16 hours; read-out: % Methane Inhibition (compounds indicated by *)
Work on `O=C1NC(C(Cl)(Cl)Cl)Oc2ccc(NCc3ccc(Cl)cc3)cc21` (centres unmarked) [6-p-chlorobenzylamino-3,4-dihydro-2-tichloromethyl-2H-benzo[e]-[1,3]-oxazin-4l-one] yielded an inhibition at 3 µg/mL of 86%.
For `N#Cc1ccc2c(c1)C(=O)NC(C(Cl)(Cl)Cl)O2` (centres unmarked) [drawing 8; R1=H; R3=CN; R5=H, 3,4-dihydro-4-oxo-2-trichloromethyl-2H-benzo[e]-[1,3]-oxazine-6-carbonitrile], the inhibition at 3 µg/mL was 87%.

Same assay, conditions: in vitro, diluted rumen fluid with dried ground hay, pH 6.9-7.0, 39° C., 15-16 hours; read-out: ED50, concentration of the test compound required to produce a 50% reduction in methane production
`O=C1NC(C(Cl)(Cl)Cl)Nc2ccc(Cl)cc21` (centres unmarked) [drawing 5; R3=Cl; R5=H; R6=H] gave an IC50 of 0.3 µg/mL (≈ 1 µM).
Compound `CN1C(=O)c2ccccc2N(C)C1C(Cl)(Cl)Cl` (centres unmarked) [drawing 5; R3=H; R5=CH3; R6=CH3] has an IC50 of 1 µg/mL (≈ 3.41 µM).
Work on `CN1C(=O)c2ccccc2NC1C(Cl)(Cl)Cl` (centres unmarked) [drawing 5; R3=H; R5=CH3; R6=H] yielded an IC50 of 1 µg/mL (≈ 3.58 µM).
In the case of `CN1c2ccccc2C(=O)NC1C(Cl)(Cl)Cl` (centres unmarked) [drawing 5; R3=H; R5=H; R6=CH3], the IC50 was 0.3 µg/mL (≈ 1.07 µM).
In the case of `O=C1NC(C(Cl)(Cl)Cl)Nc2ccccc21` (centres unmarked) [drawing 5; R3=H; R5=H; R6=H, 1,2-dihydro-2-trichloromethylquinazolin-4-one], the IC50 was 0.3 µg/mL (≈ 1.13 µM).
With `O=C1NC(C(Cl)(Cl)Cl)Nc2ccc([N+](=O)[O-])cc21` (centres unmarked) [drawing 5; R3=NO2; R5=H; R6=H, 1,2-dihydro-6-nitro-2-trichloromethylquinazolin-4-one] the IC50 was 3 µg/mL (≈ 9.66 µM).
`CCN(CC)C(=O)c1ccc2c(c1)C(=O)NC(C(Cl)(Cl)Cl)O2` (centres unmarked) [drawing 6; R3=(C2 H5)2 N . CO; R5=H, 3,4-dihydro-N,N-diethyl-4-oxo-2-trichloromethyl-2H-benzo[e]-[1,3]-oxazine-6-carboxamide] showed an IC50 of 0.3 µg/mL (≈ 0.82 µM).
`O=C1NC(C(Cl)(Cl)Cl)Oc2ccc(Br)cc21` (centres unmarked) [drawing 6; R3=Br; R5=H] gave an IC50 of 0.5 µg/mL (≈ 1.45 µM).
`CCC(=O)Oc1ccc2c(c1)C(=O)N(C(=O)CC)C(C(Cl)(Cl)Cl)O2` (centres unmarked) [drawing 6; R3=C2 H5 CO . O; R5=C2 H5 CO, 3,4-dihydro-3-propionyl-6-propionyloxy-2-trichloromethyl-2H-benzo[e]-[1,3]-oxazin-4-one] gave an IC50 of 0.3 µg/mL (≈ 0.76 µM).
In the case of `CCC(=O)Oc1ccc2c(c1)C(=O)NC(C(Cl)(Cl)Cl)O2` (centres unmarked) [drawing 6; R3=C2 H5 CO . O; R5=H, 3,4-dihydro-6-propionyloxy-2-trichloromethyl-2H-benzo[e]-[1,3]-oxazin-4-one], the IC50 was 0.3 µg/mL (≈ 0.886 µM).
In the case of `O=C1NC(C(Cl)(Cl)Cl)Oc2ccc(OCc3ccccc3)cc21` (centres unmarked) [drawing 6; R3=C6 H5 . CH2 O; R5=H, 6-benzyloxy-3,4-dihydro-2-trichloromethyl-2H-benzo[e]-[1,3]-oxazin-4-one], the IC50 was 10 µg/mL (≈ 26.8 µM).
In the case of `CCCNC(=O)c1ccc2c(c1)C(=O)NC(C(Cl)(Cl)Cl)O2` (centres unmarked) [drawing 6; R3=CH3 (CH2)2 NH . CO; R5=H, 3,4-dihydro-4-oxo-N-propyl-2-trichloromethyl-2H-benzo[e]-[1,3]-oxazine-6-carboxamide], the IC50 was 0.3 µg/mL (≈ 0.853 µM).
Compound `CCCCOC(=O)c1ccc2c(c1)C(=O)NC(C(Cl)(Cl)Cl)O2` (centres unmarked) [drawing 6; R3=CH3 (CH2)3 O . CO; R5=H, butyl 3,4-dihydro-4-oxo-2-trichloromethyl-2H-benzo[e]-[1,3]-oxazine-6-carboxylate] has an IC50 of 1 µg/mL (≈ 2.73 µM).
In the case of `CCCCOc1ccc2c(c1)C(=O)NC(C(Cl)(Cl)Cl)O2` (centres unmarked) [drawing 6; R3=CH3 (CH2)3 O; R5=H, 6-butyloxy-3,4-dihydro-2-trichloromethyl-2H-benzo[e]-[1,3]-oxazin-4-one], the IC50 was 3 µg/mL (≈ 8.86 µM).
`CC(=O)Oc1ccc2c(c1)C(=O)N(C(C)=O)C(C(Cl)(Cl)Cl)O2` (centres unmarked) [drawing 6; R3=CH3 CO . O; R5=CH3 CO, 6-acetoxy-3-acetyl-3,4-dihydro-2-trichloromethyl-2H-benzo[e]-[1,3]-oxazin-4-one] showed an IC50 of 1 µg/mL (≈ 2.73 µM).
For `CC(=O)Oc1ccc2c(c1)C(=O)NC(C(Cl)(Cl)Cl)O2` (centres unmarked) [drawing 6; R3=CH3 CO . O; R5=H, 6-acetoxy-3,4-dihydro-2-trichloromethyl-2H-benzo[e]-[1,3]-oxazin-4-one], the IC50 was 0.3 µg/mL (≈ 0.924 µM).
`COC(=O)c1ccc2c(c1)C(=O)NC(C(Cl)(Cl)Cl)O2` (centres unmarked) [drawing 6; R3=CH3 O . CO; R5=H, methyl 3,4-dihydro-4-oxo-2-trichloromethyl-2H-benzo[e]-[1,3]-oxazine-6-carboxylate] was tested, and the IC50 was 3 µg/mL (≈ 9.24 µM).
With `COc1ccc2c(c1)C(=O)N(C)C(C(Cl)(Cl)Cl)O2` (centres unmarked) [drawing 6; R3=CH3 O; R5=CH3, 3,4-dihydro-6-methoxy-3-methyl-2-trichloromethyl-2H-benzo[e]-[1,3]-oxazin-4-one] the IC50 was 3 µg/mL (≈ 9.66 µM).
`COc1ccc2c(c1)C(=O)NC(C(Cl)(Cl)Cl)O2` (centres unmarked) [drawing 6; R3=CH3 O; R5=H, 3,4-dihydro-6-methoxy-2-trichloromethyl-2H-benzo[e]-[1,3]-oxazin-4-one] gave an IC50 of 0.5 µg/mL (≈ 1.69 µM).
Compound `Cc1ccc2c(c1)C(=O)NC(C(Cl)(Cl)Cl)O2` (centres unmarked) [drawing 6; R3=CH3; R5=H] has an IC50 of 1 µg/mL (≈ 3.56 µM).
For `CC(=O)N1C(=O)c2ccccc2OC1C(Cl)(Cl)Cl` (centres unmarked) [drawing 6; R3=H; R5=CH3 CO, 3-acetyl-3,4-dihydro-2-trichloromethyl-2H-benzo[e]-[1,3]-oxazin-4-one], the IC50 was 1 µg/mL (≈ 3.24 µM).
Work on `O=C1NC(C(Cl)(Cl)Cl)Oc2ccccc21` (centres unmarked) [drawing 6; R3=H; R5=H, 3,4-dihydro-2-trichloromethyl-2H-benzo[e]-[1,3]-oxazin-4-one] yielded an IC50 of 0.5 µg/mL (≈ 1.88 µM).
Compound `O=CN1C(=O)c2ccccc2OC1C(Cl)(Cl)Cl` (centres unmarked) [drawing 6; R3=H; R5=HCO, 3-formyl-3,4-dihydro-2-trichloromethyl-2H-benzo[e]-[1,3]-oxazin-4-one] has an IC50 of 0.5 µg/mL (≈ 1.7 µM).
`O=C(O)c1ccc2c(c1)C(=O)NC(C(Cl)(Cl)Cl)O2` (centres unmarked) [drawing 6; R3=HO . CO; R5=H, 3,4-dihydro-4-oxo-2-trichloromethyl-2H-benzo[e]-[1,3]-oxazine-6-carboxylicacid] showed an IC50 of 0.3 µg/mL (≈ 0.966 µM).
`O=C1NC(C(Cl)(Cl)Cl)Oc2ccc(O)cc21` (centres unmarked) [drawing 6; R3=HO; R5=H, 3,4-dihydro-6-hydroxy-2-trichloromethyl-2H-benzo[e]-[1,3]-oxazin-4-one] showed an IC50 of 0.5 µg/mL (≈ 1.77 µM).
Compound `NC(=O)c1ccc2c(c1)C(=O)NC(C(Cl)(Cl)Cl)O2` (centres unmarked) [drawing 6; R3=NH2 CO; R5=H, 3,4-dihydro-4-oxo-2-trichloromethyl-2H-benzo[e]-[1,3]-oxazine-6-carboxamide] has an IC50 of 0.3 µg/mL (≈ 0.969 µM).
Work on `O=C1NC(C(Cl)(Cl)Cl)Oc2ccc([N+](=O)[O-])cc21` (centres unmarked) [drawing 6; R3=NO2; R5=H] yielded an IC50 of 1 µg/mL (≈ 3.21 µM).
In the case of `O=C(Oc1ccc2c(c1)C(=O)NC(C(Cl)(Cl)Cl)O2)c1ccc(Cl)cc1` (centres unmarked) [drawing 6; R3=p-Cl . C6 H4 CO . O; R5=H, 6-p-chlorobenzoyloxy-3,4-dihydro-2-trichloromethyl-2H-benzo[e]-[1,3]-oxazin-4-one], the IC50 was 1 µg/mL (≈ 2.37 µM).
Compound `COc1ccc2c(c1)COC(C(Cl)(Cl)Cl)N2` (centres unmarked) [drawing 7; R3=CH3 O, 1,2-dihydro-6-methoxy-2-trichloromethyl-4H-benzo[d]-[1,3]-oxazine] has an IC50 of 0.3 µg/mL (≈ 1.06 µM).
Work on `Cc1ccc2c(c1)COC(C(Cl)(Cl)Cl)N2` (centres unmarked) [drawing 7; R3=CH3, 1,2-dihydro-6-methyl-2-trichloromethyl-4H-benzo[d]-[1,3]oxazine] yielded an IC50 of 3 µg/mL (≈ 11.3 µM).
`N#Cc1ccc2c(c1)COC(C(Cl)(Cl)Cl)N2` (centres unmarked) [drawing 7; R3=CN, 1,2-dihydro-2-trichloromethyl-4H-benzo[d]-[1,3]-oxazine-6-carbonitrile] showed an IC50 of 0.3 µg/mL (≈ 1.08 µM).
For `ClC(Cl)(Cl)C1Nc2ccccc2CO1` (centres unmarked) [drawing 7; R3=H, 1,2-dihydro-2-trichloromethyl-4H-benzo[d]-[1,3]-oxazine], the IC50 was 1 µg/mL (≈ 3.96 µM).
Compound `ClC(Cl)(Cl)C1Nc2ccc(I)cc2CO1` (centres unmarked) [drawing 7; R3=I] has an IC50 of 1 µg/mL (≈ 2.64 µM).
In the case of `O=[N+]([O-])c1ccc2c(c1)COC(C(Cl)(Cl)Cl)N2` (centres unmarked) [drawing 7; R3=NO2, 1,2-dihydro-6-nitro-2-trichloromethyl-4H-benzo[d]-[1,3]oxazine], the IC50 was 0.5 µg/mL (≈ 1.68 µM).
